Values quoted from earlier work, collected in patent US4294824A, “Extracts of the hemopoietic system” (priority 1975, dated 1981).

conditions: lists continue in the following blocks

SMILES | SOME SIDE EFFECTS AND MAJOR TOXICITY
CN(Cc1cnc2nc(N)nc(N)c2n1)c1ccc(C(=O)N[C@@H](CCC(=O)O)C(=O)O)cc1 [METHOTREXATE, methotrexate] | Myelosuppression, bone marrow depression, leucopenia
Nc1ccn([C@@H]2O[C@H](CO)[C@@H](O)[C@@H]2O)c(=O)n1 [CYTOSINE ARABINOSIDE, cystosine arabinoside] | Myelosuppression, bone marrow depression, nausea
O=P1(N(CCCl)CCCl)NCCCO1 (centres unmarked) [CYCLOPHOSPHAMIDE, cyclophosphamide] | Leucopenia, anorexia, nausea, vomiting. diarrhoea
COc1cccc2c1C(=O)c1c(O)c3c(c(O)c1C2=O)C[C@@](O)(C(C)=O)C[C@@H]3O[C@H]1C[C@H](N)[C@H](O)[C@H](C)O1 [DAUNORUBICIN, daunorubicin] | Myelosuppression, leucopenia, anaemia
CC[C@]1(O)C[C@H]2CN(CCc3c([nH]c4ccccc34)[C@@](C(=O)OC)(c3cc4c(cc3OC)N(C=O)[C@H]3[C@@](O)(C(=O)OC)[C@H](OC(C)=O)[C@]5(CC)C=CCN6CC[C@]43[C@@H]65)C2)C1 [VINCRISTINE, vincristine] | Peripheral neuropathy, adynamic ileus, myopathy
